Read-outs that look alike come from different tables or passages of the source.
What was measured:
[1] = tested on: Human Peripheral Blood Mononuclear Cell (PBMC); test: Toxicity on peripheral blood mononuclear cells (MTT); assay type: cell-based; settings: for Absorbance 490 nm, replicate 1 / Absorbance 490 nm, replicate 2 / Absorbance 490 nm, replicate 3 / Absorbance 490 nm, replicate 4 / Mean value (absorbance) / Cell viability (%): 24 hrs, MTT; for Cell viability (%): relative to negative control
Protocol: General operations: normal peripheral blood cells were isolated by Ficoll to obtain mononuclear cells. The mononuclear cells were rinsed by the PBS for three times, and added with IMDM+10% FBS to prepare suspensions. […] The suspensions were then inoculated into 96-well plates, with each hole containing 25 thousands cells per 100 μL of the culture medium, and cultured overnight at 37° C.
Treatment: because the proliferation of the PBMCs is very limited and the PBMCs quickly enter a decline phase. Thus, the cell viability was measured by the MTT assay after 24 hrs of culture. […] The group where PBMCs were treated by the sterile deionized water was selected as the negative control group.
1. Experimental cells: normal peripheral blood cells were isolated by Ficoll to obtain mononuclear cells. The mononuclear cells were rinsed by the PBS for three times, added with IMDM+10% FBS to prepare suspensions, […].
2. […] Then the 96-well plates were transferred into an incubator at 37° C. for culture. […] After another 24 hrs of cultivation, 20 μL of MTT was added to each hole, and the plates were incubated for 3 hrs in the incubator (37° C., 5% CO2). Solution in each hole was then removed and replaced by 150 μL of DMSO.

[2] = tested on: human breast carcinoma cell line MCF-7; test: Inhibition rate at 10 μM versus chemotherapeutic drugs, MCF-7 (MTT); assay type: cell-based; settings: MCF7, MCF-7, 10 μM of drug
Text: (§1) As a drug for target therapy, the erlotinib is applicable to a third-line treatment of locally advanced or metastatic non-small cell lung cancer when two or more than two chemotherapies are failed. Currently, the gemcitabine is clinically utilized as the drug of the first-line therapy in treating advanced non-small cell lung cancer and the metastatic breast cancer. […] 1. Experimental cell lines and related chemical reagents: sources and cultivation of the human lung adenocarcinoma cells A549, the human lung squamous carcinoma cell line H460, the human breast carcinoma cell line MCF-7 are described in the above. […] Then the 96-well plates were transferred into the incubator (37° C., 5% CO2) for culture. […] The anti-tumor effects of the above drugs were measured by the MTT assay. The number of viable cells in the negative control groups at 0 hr was taken as a basis to calculate the anti-tumor effects.

rat cardiomyocytes = settings: for Relative ratio of ATP/total protein, Mean value (%) / Relative ratio of ATP/total protein, replicate 1 / Relative ratio of ATP/total protein, replicate 2 / Relative ratio of ATP/total protein, replicate 3: both, SD, rat
Protocol: General operations: 1-2 day old neonatal SD rats (female or male) were selected and cardiomyocytes were isolated in sterile condition. […] The cardiotoxicity of the above drugs were represented by a ratio of ATP/total protein. […] The group where […] were treated by the sterile deionized water was selected as the negative control group.
1. Experimental cells: 1-2 day old neonatal SD rats (female or male) were selected and sterilized. Then ventricular muscles were collected and digested by trypsin to prepare cardiomyocyte suspensions. The suspensions were cultured in the incubator (37° C., 5% CO2), and primary cardiomyocytes were cultured by differential adhesion.
2. […] After another 6 hrs of cultivation, the culture solution in each hole was replaced by the normal culture solution not containing any drugs, and incubated for 42 hrs in the incubator (37° C., 5% CO2). Solution in each hole was then removed, and cells therein were rinsed by the PBS for three times, digested by the trypsin, and gathered into two parts. One part of the cells was utilized to measure the ATP level by the reporter gene assay, and the other part of the cells was utilized to measure the cellular protein concentration by BAC assay. The ratio of ATP (ng) to the protein concentration (μg) was calculated, and the ratio of each experimental group is divided by the ratio of the contrast group to obtain the relative ratio of ATP/total protein, experimental results were listed in Table 4.

[3] = tested on: human lung adenocarcinoma cells A549; test: Inhibition rate at 10 μM versus chemotherapeutic drugs, A549 (MTT); assay type: cell-based; settings: A549, 10 μM of drug
Text: as §1

[4] = tested on: human lung squamous carcinoma cell line H460; test: Inhibition rate at 10 μM versus chemotherapeutic drugs, H460 (MTT); assay type: cell-based; settings: NCI-H460, H460, 10 μM of drug
Text: as §1

[5] = tested on: human breast cancer cells MCF-7; test: MTT growth inhibition of MCF-7 cells (IC50); assay type: cell-based; settings: MCF7, 48 hrs of treatment
Protocol: (§2) 2. […] Solution in each hole was then removed and replaced by 150 μL of DMSO.

[6] = tested on: human liver cancer cells HepG2; test: MTT growth inhibition of HepG2 cells (IC50); assay type: cell-based; settings: 48 hrs of treatment
Protocol: as §2

[7] = tested on: human cervical cancer cells HeLa; test: MTT growth inhibition of HeLa cells (IC50); assay type: cell-based; settings: 48 hrs of treatment
Protocol: as §2

[8] = tested on: human lung adenocarcinoma cells A549; test: MTT growth inhibition of A549 cells (IC50); assay type: cell-based; settings: 48 hrs of treatment
Protocol: as §2

[9] = tested on: human pancreatic cancer cells PANC-1; test: cells; assay type: cell-based; settings: 48 hrs of treatment, MTT, read-out: IC50 on the growth of the PANC-1 cells
Protocol: as §2

[10] = tested on: human lung squamous carcinoma cells H460 xenograft; test: H460 xenograft tumor growth in nude mice; assay type: in vivo; settings: 75 mg/kg oral, three times each week
Protocol: 1.1 Preparation of experimental animals: 30 nude mice with equal numbers of females and males were fed in normal conditions in the laboratory for between 3 and 5 days.
Preparation of H460 cells: H460 tumor cells were normally cultured, and diluted using the PBS so as to prepare a suspension of tumor cells having a concentration of 7.5×10^6 tumor cells per milliliter.
1.3 Inoculation of tumor cells: the suspension of the tumor cells was fully shaken and 0.2 mL of the suspension was then sucked by a sterile syringe having a capacity of 1 mL. The tumor cells were then inoculated into armpits of the nude mice via subcutaneous injection. The inoculated mice were then fed for between 2 and 3 days in normal conditions. When the tumor tissue grew to a size with a long axis of approximately 3 mm and a short axis of approximately 2 mm, all the nude mice having the tumor tissues were randomly divided into three groups, which were utilized in subsequent administration experiments.
2.1 Control group: five male mice and five female mice having tumor tissues were orally administered with ultrapure water for three times each week (respectively at Monday, Wednesday, and Friday afternoons), and the administered volume was 0.3 mL for each time.
3.2. Acquisition of sizes of tumor tissues in the nude mice: the sizes of the tumor tissues in the nude mice were measured three times per week (respectively at Monday, Wednesday, and Friday afternoons). An electronic vernier caliper was utilized to measure the long axis and the short axis of the tumor tissues, and an accuracy of the data was 0.01 mm.
3.4 Finish time of the experiments: when the tumor tissues in the nude mice of the control group reach an average size of 1000 mm^3 (Volume=long axis×short axis 2×0.5236), the weights and the sizes of the tumor tissues of the nude mice were recorded, and then the experiments were stopped and the nude mice were treated.
3.5 Treatment of nude mice when finishing the experiments: the nude mice were killed, arranged according to different groups, and photographed. Six representative mice were selected from each group and photographed. Then the tumor tissues were respectively isolated, weighed, placed at corresponding positions, and photographed.

[11] = tested on: human lung squamous carcinoma cells H460; test: MTT growth inhibition of H460 cells (IC50); assay type: cell-based; settings: NCI-H460, 48 hrs of treatment
Protocol: as §2

[12] = contrast chemotherapeutic drugs, 10 μM (other concentrations)

O=c1[nH]cc(F)c(=O)[nH]1 [5-FU, 5-fluorouracil]
Absorbance 490 nm, replicate 1 [1, 12]: 0.493
Absorbance 490 nm, replicate 2 [1, 12]: 0.484
Absorbance 490 nm, replicate 3 [1, 12]: 0.525
Absorbance 490 nm, replicate 4 [1, 12]: 0.461
Mean value (absorbance) [1, 12]: 0.491
Cell viability (%) [1, 12]: 61.4%
inhibition at 10 µM [2]: 15.8%

COc1cccc2c1C(=O)c1c(O)c3c(c(O)c1C2=O)C[C@@](O)(C(=O)CO)C[C@@H]3O[C@H]1C[C@H](N)[C@H](O)[C@H](C)O1 [Adriamycin, adriamycin]
Toxicity on the cardiomyocytes (rat cardiomyocytes): obvious toxicity on the cardiomyocytes
Relative ratio of ATP/total protein, Mean value (%) (rat cardiomyocytes; 10 μM): 46.97%
Relative ratio of ATP/total protein, replicate 1 (rat cardiomyocytes; 10 μM): 47.3%
Relative ratio of ATP/total protein, replicate 2 (rat cardiomyocytes; 10 μM): 43.1%
Relative ratio of ATP/total protein, replicate 3 (rat cardiomyocytes; 10 μM): 50.5%
Absorbance 490 nm, replicate 1 [1, 12]: 0.482
Absorbance 490 nm, replicate 2 [1, 12]: 0.482
Absorbance 490 nm, replicate 3 [1, 12]: 0.496
Absorbance 490 nm, replicate 4 [1, 12]: 0.530
Mean value (absorbance) [1, 12]: 0.498
Cell viability (%) [1, 12]: 62.3%

C#Cc1cccc(Nc2ncnc3cc(OCCOC)c(OCCOC)cc23)c1 [Erlotinib, erlotinib]
inhibition at 10 µM [3]: 30.3%
inhibition at 10 µM [4]: 33.1%

Nc1ccn([C@@H]2O[C@H](CO)[C@@H](O)C2(F)F)c(=O)n1 [Gemcitabine, gemcitabine]
inhibition at 10 µM [3]: 6.9%
inhibition at 10 µM [4]: 4.3%
inhibition at 10 µM [2]: 40.1%

CC(=O)O[C@H]1C(=O)[C@@]2(C)[C@H]([C@H](OC(=O)c3ccccc3)[C@]3(O)C[C@H](OC(=O)[C@H](O)[C@@H](NC(=O)c4ccccc4)c4ccccc4)C(C)=C1C3(C)C)[C@]1(OC(C)=O)CO[C@@H]1C[C@@H]2O [Paclitaxel, paclitaxel]
inhibition at 10 µM [3]: 28.8%
Absorbance 490 nm, replicate 1 [1, 12]: 0.712
Absorbance 490 nm, replicate 2 [1, 12]: 0.743
Absorbance 490 nm, replicate 3 [1, 12]: 0.683
Absorbance 490 nm, replicate 4 [1, 12]: 0.650
Mean value (absorbance) [1, 12]: 0.697
Cell viability (%) [1, 12]: 87.2%
inhibition at 10 µM [4]: 17.3%
inhibition at 10 µM [2]: 89.6%

C[S+]([O-])CCCCN=C=S (centres unmarked) [Sulforaphane, 1-isothiocyanato-4-(methysulfinyl)-butane]
IC50 [5]: 19.5 µM
IC50 [6]: 47.3 µM
IC50 [7]: 25.8 µM
Relative ratio of ATP/total protein, Mean value (%) (rat cardiomyocytes; 10 μM): 89.87%
Relative ratio of ATP/total protein, replicate 1 (rat cardiomyocytes; 10 μM): 90.0%
Relative ratio of ATP/total protein, replicate 2 (rat cardiomyocytes; 10 μM): 88.2%
Relative ratio of ATP/total protein, replicate 3 (rat cardiomyocytes; 10 μM): 91.4%
Relative ratio of ATP/total protein, Mean value (%) (rat cardiomyocytes; 30 μM): 83.33%
Relative ratio of ATP/total protein, replicate 1 (rat cardiomyocytes; 30 μM): 85.1%
Relative ratio of ATP/total protein, replicate 2 (rat cardiomyocytes; 30 μM): 83.3%
Relative ratio of ATP/total protein, replicate 3 (rat cardiomyocytes; 30 μM): 81.6%
Relative ratio of ATP/total protein, Mean value (%) (rat cardiomyocytes; 50 μM): 76.03%
Relative ratio of ATP/total protein, replicate 1 (rat cardiomyocytes; 50 μM): 77.5%
Relative ratio of ATP/total protein, replicate 2 (rat cardiomyocytes; 50 μM): 76.7%
Relative ratio of ATP/total protein, replicate 3 (rat cardiomyocytes; 50 μM): 73.9%
Absorbance 490 nm, replicate 1 ([1]; 10 μM): 0.702
Absorbance 490 nm, replicate 2 ([1]; 10 μM): 0.633
Absorbance 490 nm, replicate 3 ([1]; 10 μM): 0.705
Absorbance 490 nm, replicate 4 ([1]; 10 μM): 0.593
Mean value (absorbance) ([1]; 10 μM): 0.658
Cell viability (%) ([1]; 10 μM): 82.4%
Absorbance 490 nm, replicate 1 ([1]; 30 μM): 0.655
Absorbance 490 nm, replicate 2 ([1]; 30 μM): 0.616
Absorbance 490 nm, replicate 3 ([1]; 30 μM): 0.58
Absorbance 490 nm, replicate 4 ([1]; 30 μM): 0.628
Mean value (absorbance) ([1]; 30 μM): 0.620
Cell viability (%) ([1]; 30 μM): 77.6%
Absorbance 490 nm, replicate 1 ([1]; 50 μM): 0.663
Absorbance 490 nm, replicate 2 ([1]; 50 μM): 0.621
Absorbance 490 nm, replicate 3 ([1]; 50 μM): 0.610
Absorbance 490 nm, replicate 4 ([1]; 50 μM): 0.610
Mean value (absorbance) ([1]; 50 μM): 0.626
Cell viability (%) ([1]; 50 μM): 78.4%
Effect on the proliferation of the PBMCs ([1]; Table 3 summary): certain effect on the proliferation of the cells
IC50 [8]: 14.7 µM
IC50 [9]: 6.73 µM
Tumor volume on 1st day ([10]; day 1): 30.55 mm^3
Tumor volume on 3rd day ([10]; day 3): 78.81 mm^3
Tumor volume on 6st day ([10]; day 6): 257.8812 mm^3
Tumor volume on 8th day ([10]; day 8): 389.6022 mm^3
Tumor volume on 10th day ([10]; day 10): 552.7308 mm^3
IC50 [11]: 34.6 µM

— patent US9655875B2, “Method of treating or preventing tumors using 1-(alkylsulfinyl)-2-isothiocyanatoalkyl-1-alkene” (BEIJING UNIVERSITY OF CHEMICAL TECHNOLOGY, priority 2013, dated 2017)
